{"source": "paper PMC4604124", "about": "“In Vitro Characterization of the Pharmacological Properties of the Anti-Cancer Chelator, Bp4eT, and Its Phase I Metabolites” (PLoS ONE, 2015)", "key": {"[1]": {"test_system": "3T3 mouse embryo fibroblasts", "assay": "MTT cytotoxicity assay, 3T3 cells", "format": "cell-based", "conditions": "for IC50: MTT", "in_short": "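3T3 fibroblast viability was measured with an MTT assay, reading optical density at λ = 570 nm with λ = 690 nm background subtracted on a Tecan Infinite 200M. Results were expressed as a percentage of untreated controls (100%) and reported as mean ± SD. IC50 values came from CalcuSyn 2.0 after a 72 h/37°C incubation.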"}, "[2]": {"assay": "Ascorbate oxidation assay (redox activity of iron complexes);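 as to %Fe 30min (ascorbate oxidation, Fe = 100%), průměr (mean): IBE 1 means iron-binding equivalents giving fully coordinated iron-chelator complexes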;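 as to %Fe 30min (ascorbate oxidation, Fe = 100%), single replicates: IBE 1 means iron-binding equivalents giving fully coordinated iron-chelator complexes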;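 as to %Fe 30min: ascorbate oxidation as % of the Fe control (Fe 100%): IBE 0.1 means iron-binding equivalents with iron in excess over chelator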;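 as to odečet 0 (reading minus time 0 reading) at čas 20, single replicates: IBE 1 means fully coordinated iron chelator complexes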;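 as to odečet 0 (reading minus time 0 reading) at čas 30, průměr (mean): IBE 1 means fully coordinated iron chelator complexes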;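 as to odečet 0 (reading minus time 0 reading) at čas 30, single replicates: IBE 1 means fully coordinated iron chelator complexes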;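 as to raw reading at čas 20 (time 20), průměr (mean): IBE 1 means fully coordinated iron chelator complexes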;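 as to raw reading at čas 20 (time 20), single replicates: IBE 1 means fully coordinated iron chelator complexes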;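 as to raw reading at čas 30 (time 30), průměr (mean): IBE 1 means fully coordinated iron chelator complexes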", "format": "biochemical"}, "[3]": {"conditions": "sheet IBE 1, time 10, replicates"}, "[4]": {"conditions": "sheet IBE 1, time 20, replicates"}}, "note": "“And” between values parts separate entries of the source, which are not always exact repeats. Identical values can stand only once. Like-named read-outs stand apart in the source and are kept apart here.", "data": [{"compound": "CCN=CNN=C(c1ccccc1)c1ccccn1", "note": "[Bp4eA, N ^3-ethyl-N ^1-[phenyl(pyridin-2-yl)methylene]formamidrazone]", "values": [{"measurement": "IC50", "setting": "[1]; 3T3, 10 000 b/j, individual experiments, read-out: IC50", "result": "1010 µM and 1150 µM"}, {"measurement": "MTT viability (0 = 100)", "setting": "[1]; 3T3, 10 000 b/j, koncentrace 1 μM, individual experiments", "result": "95.1233 and 93.3461 and 101.857"}, {"measurement": "MTT viability (0 = 100)", "setting": "[1]; 3T3, 10 000 b/j, koncentrace 3 μM, individual experiments", "result": "92.5164 and 97.328 and 96.9903"}, {"measurement": "MTT viability (0 = 100)", "setting": "[1]; 3T3, 10 000 b/j, koncentrace 10 μM, individual experiments", "result": "86.2678 and 91.552 and 97.4344"}, {"measurement": "MTT viability (0 = 100)", "setting": "[1]; 3T3, 10 000 b/j, koncentrace 30 μM, individual experiments", "result": "90.9815 and 83.2122 and 96.551"}, {"measurement": "MTT viability (0 = 100)", "setting": "[1]; 3T3, 10 000 b/j, koncentrace 100 μM, individual experiments", "result": "87.8661 and 89.8957 and 82.8198"}, {"measurement": "MTT viability (0 = 100)", "setting": "[1]; 3T3, 10 000 b/j, koncentrace 300 μM, individual experiments", "result": "76.7642 and 78.9793 and 76.2498"}, {"measurement": "MTT viability (0 = 100)", "setting": "[1]; 3T3, 10 000 b/j, koncentrace 1000 μM, individual experiments", "result": "48.7008 and 53.1589 and 49.6824"}, {"measurement": "IC50", "setting": "[1]; Mus musculus, Fibroblast, 3T3, 10 000 b/j, individual experiments, read-out: IC50", "result": 748, "unit": "µM"}, {"measurement": "IC50", "setting": "[1]; Mus musculus, Fibroblast, 3T3, 10 000 b/j, mean, read-out: IC50, průměr", "result": 1030, "unit": "µM"}, {"measurement": "IC50", "setting": "[1]; Mus musculus, Fibroblast, 72 h, 3T3, 72 h/37°C, mean ± SD, n ≥ 4, read-out: IC50", "result": "1030 ± 204", "unit": "µM"}, {"measurement": "%Fe 30min: ascorbate oxidation as % of the Fe control (Fe 100%)", "setting": "[2]; IBE 0.1, 30 min, mean (průměr)", "result": 102.5, "unit": "%"}, {"measurement": "Change of absorbance after subtraction of time 0 (odečet 0)", "setting": "[2]; IBE 0.1, time 10, mean (průměr)", "result": -0.03561}, {"measurement": "Change of absorbance after subtraction of time 0 (odečet 0)", "setting": "[2]; IBE 0.1, time 20, mean (průměr)", "result": -0.0674}, {"measurement": "Change of absorbance after subtraction of time 0 (odečet 0)", "setting": "[2]; IBE 0.1, time 30, mean (průměr)", "result": -0.09706}, {"measurement": "Absorbance (ascorbate, λ = 265 nm)", "setting": "[2]; IBE 0.1, čas 0 (time 0), mean (průměr)", "result": 0.8401}, {"measurement": "Absorbance (ascorbate, λ = 265 nm)", "setting": "[2]; IBE 0.1, čas 10 (time 10), mean (průměr)", "result": 0.8044}, {"measurement": "Absorbance (ascorbate, λ = 265 nm)", "setting": "[2]; IBE 0.1, čas 20 (time 20), mean (průměr)", "result": 0.7727}, {"measurement": "Absorbance (ascorbate, λ = 265 nm)", "setting": "[2]; IBE 0.1, čas 30 (time 30), mean (průměr)", "result": 0.743}, {"measurement": "%Fe 30min (ascorbate oxidation, Fe = 100%), průměr (mean)", "setting": "[2]; sheet IBE 1, 30min, Fe 100%, mean", "result": 106.5, "unit": "%"}, {"measurement": "%Fe 30min (ascorbate oxidation, Fe = 100%), single replicates", "setting": "[2]; sheet IBE 1, 30min, Fe 100%, replicates", "result": "113.3% and 104.9% and 102.6% and 110.5% and 113.6% and 110.3% and 106.1% and 101.1% and 95.68%"}, {"measurement": "raw reading at čas 0 (time 0), průměr (mean)", "setting": "[2]; sheet IBE 1, time 0, mean of 9 readings", "result": 0.8163}, {"measurement": "raw reading at čas 0 (time 0), single replicates", "setting": "[2]; sheet IBE 1, time 0, replicates of 2014-03-24 (two runs) and 2014-03-25", "result": "0.8356 and 0.8379 and 0.8058 and 0.8059 and 0.8041 and 0.8006 and 0.8152 and 0.8134 and 0.828"}, {"measurement": "odečet 0 (reading minus time 0 reading) at čas 10, průměr (mean)", "setting": "[2]; sheet IBE 1, time 10, mean", "result": -0.03248}, {"measurement": "raw reading at čas 10 (time 10), průměr (mean)", "setting": "[2]; sheet IBE 1, time 10, mean of 9 readings", "result": 0.7838}, {"measurement": "odečet 0 (reading minus time 0 reading) at čas 10, single replicates", "setting": "[2]; [3]", "result": "-0.02971 and -0.02191 and -0.02781 and -0.03858 and -0.03648 and -0.03745 and -0.03205 and -0.03185"}, {"measurement": "raw reading at čas 10 (time 10), single replicates", "setting": "[2]; [3]", "result": "0.7761 and 0.784 and 0.7763 and 0.762 and 0.7787 and 0.7769 and 0.7906 and 0.8036 and 0.8061"}, {"measurement": "odečet 0 (reading minus time 0 reading) at čas 20, průměr (mean)", "setting": "[2]; sheet IBE 1, time 20, mean", "result": -0.06498}, {"measurement": "raw reading at čas 20 (time 20), průměr (mean)", "setting": "[2]; sheet IBE 1, time 20, mean of 9 readings", "result": 0.7513}, {"measurement": "odečet 0 (reading minus time 0 reading) at čas 20, single replicates", "setting": "[2]; [4]", "result": "-0.0647 and -0.0595 and -0.0576 and -0.07087 and -0.07167 and -0.06987 and -0.06821 and -0.06221 and -0.06021"}, {"measurement": "raw reading at čas 20 (time 20), single replicates", "setting": "[2]; [4]", "result": "0.7411 and 0.7464 and 0.7465 and 0.7297 and 0.7435 and 0.7598 and 0.7734 and 0.7777"}, {"measurement": "odečet 0 (reading minus time 0 reading) at čas 30, průměr (mean)", "setting": "[2]; sheet IBE 1, time 30, mean", "result": -0.09465}, {"measurement": "raw reading at čas 30 (time 30), průměr (mean)", "setting": "[2]; sheet IBE 1, time 30, mean of 9 readings", "result": 0.7216}, {"measurement": "odečet 0 (reading minus time 0 reading) at čas 30, single replicates", "setting": "[2]; sheet IBE 1, time 30, replicates", "result": "-0.09786 and -0.09066 and -0.08866 and -0.09551 and -0.09811 and -0.09531 and -0.1001 and -0.09539 and -0.09029"}]}]}
